Laboratory results reported in ChEMBL document CHEMBL1136864, “A one step/one pot synthesis of N,N-bis(phosphonomethyl)amino acids and their effects on adipogenic and osteogenic differentiation of human mesenchymal stem cells” (Bioorg Med Chem, 2009).
Active and inactive are the calls of the source. No cut-off for these calls is given here.

Key:
MADS [1] = assay: Induction of osteogenesis in human MADS cells assessed as ALP activity at 0.1 to 100 nM; format: functional, cell-based
MADS [2] = assay: Effect on adipogenesis in human MADS cells assessed as GPDH activity at 300 nM; format: functional, cell-based
MADS [3] = assay: Effect on adipogenesis in human MADS cells assessed as GPDH activity at 100 nM; format: functional, cell-based
[4] = Inhibition of osteogenesis in human MADS cells assessed as ALP activity at 100 nM; format: cell-based; conditions: 0.1 µM
[5] = Cytotoxicity against human MADS cells at 300 nM; format: cell-based; conditions: 0.3 µM
[6] = Toxicity in human MADS cells assessed as inhibition of osteoblast formation at 300 nM after 14 days by Von Kossa staining; format: cell-based; conditions: 336 h, 0.3 µM
[7] = Toxicity in human MADS cells assessed as inhibition of osteoblast formation at 100 nM after 14 days by Von Kossa staining; format: cell-based; conditions: 336 h, 0.1 µM
[8] = Inhibition of osteogenesis in human MADS cells assessed as ALP activity at 300 nM; format: cell-based; conditions: 0.3 µM
[9] = Cytotoxicity against human MADS cells at 100 nM; format: cell-based; conditions: 0.1 µM
[10] = Cytotoxicity against human MADS cells at 0.1 to 100 nM; format: cell-based; conditions: 0.1 µM
MADS [11] = assay: Effect on adipogenic differentiation of human MADS cells into adipocytes at 300 nM after 14 days by Oil red O staining; format: functional, cell-based
MADS [12] = assay: Effect on adipogenic differentiation of human MADS cells into adipocytes at 100 nM after 14 days by Oil red O staining; format: functional, cell-based

Row | SMILES | Activity (MADS [1]) | Activity (MADS [2]) | Activity (MADS [3]) | Activity [4] | Activity [5] | Activity [6] | Activity [7] | Activity [8] | Activity [9] | Activity [10] | Activity (MADS [11]) | Activity (MADS [12])
1 | NCCCC(O)(P(=O)(O)O)P(=O)(O)O | Active | inactive |  |  |  |  |  |  |  |  |  | 
2 | CC(C)(C(=O)O)N(CP(=O)(O)O)CP(=O)(O)O | Active | inactive | inactive | Active | Non-toxic | Toxic | Toxic | Active | Non-toxic | Non-toxic | inactive | inactive
3 | O=C(O)C1(N(CP(=O)(O)O)CP(=O)(O)O)CCCCC1 | Active | inactive | inactive | Active | Non-toxic | Toxic | Toxic | Active | Non-toxic | Non-toxic | inactive | inactive
4 | O=C(O)C1(N(CP(=O)(O)O)CP(=O)(O)O)CCCC1 | Active | inactive | inactive | Active | Non-toxic | Toxic | Toxic | Active | Non-toxic | Non-toxic | inactive | inactive
